pIC50: −log10 of the molar value.
Target: T1, CDK2/CycE (Homo sapiens, UniProt P24941)
T1 construct: GST; purchased ProQinase GmbH (Freiburg, Germany); host or cells: insect cells (Sf9)
Assay: CDK2/CycE kinase assay (TR-FRET)
Type: biochemical
Details: avg, read-out: CDK2 avg (IC50 [mol/l])
Outline: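 Read-out is a TR-FRET 665/620 nm emission ratio from EDTA-stopped reactions detected with anti-pRB(pSer807/pSer811), Eu-labelled anti-mouse IgG and streptavidin-XL665, scaled between no-enzyme and uninhibited wells. Reaction: Sf9-expressed GST-CDK2/GST-CycE, 15 min compound preincubation, 10 μM ATP, 0.75 μM biotin-peptide, 25 min, 22° C., pH 8.0 Tris buffer.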

Row | Structure (SMILES) | pIC50
1 | Cc1nsc(Nc2cnc3ccccc3n2)c1C(=O)Nc1ccc(OC2CCN(CC(F)(F)F)CC2)nc1 [Example 21, 3-Methyl-5-(quinoxalin-2-ylamino)-N-(6-{[1-(2,2,2-trifluoroethyl)piperidin-4-yl]oxy}-pyridin-3-yl)-1,2-thiazole-4-carboxamide] | ≤ 4.70
2 | CC(=O)N1CCC(Oc2ccc(NC(=O)c3c(C)nsc3Nc3cnc4ccccc4n3)cn2)CC1 [Example 22, N-{6-[(1-acetylpiperidin-4-yl)oxy]pyridin-3-yl}-3-methyl-5-(quinoxalin-2-ylamino)-1,2-thiazole-4-carboxamide] | ≤ 4.70
3 | Cc1nsc(Nc2cc(C#N)ccn2)c1C(=O)Nc1ccc(OC2CCN(C(=O)OC(C)(C)C)CC2)nc1 [Example 23, tert-Butyl 4-({5-[({5-[(4-cyanopyridin-2-yl)amino]-3-methyl-1,2-thiazol-4-yl}-carbonyl)amino]pyridin-2-yl}oxy)piperidine-1-carboxylate] | ≤ 4.70
4 | Cc1nsc(Nc2cc(C#N)ccn2)c1C(=O)Nc1ccc(OC2CCNCC2)nc1 [Example 24, 5-[(4-Cyanopyridin-2-yl)amino]-3-methyl-N-[6-(piperidin-4-yloxy)pyridin-3-yl]-1,2-thiazole-4-carboxamide] | ≤ 4.70
5 | Cc1nsc(Nc2cc(C#N)ccn2)c1C(=O)Nc1ccc(OC2CCN(CC(F)(F)F)CC2)nc1 [Example 25, 5-[(4-Cyanopyridin-2-yl)amino]-3-methyl-N-(6-{[1-(2,2,2-trifluoroethyl)piperidin-4-yl]oxy}pyridin-3-yl)-1,2-thiazole-4-carboxamide] | ≤ 4.70
6 | CCN1CCC(Oc2ccc(NC(=O)c3c(C)nsc3Nc3cc(C#N)ccn3)cn2)CC1 [Example 26, 5-[(4-Cyanopyridin-2-yl)amino]-N-{6-[(1-ethylpiperidin-4-yl)oxy]pyridin-3-yl}-3-methyl-1,2-thiazole-4-carboxamide] | ≤ 4.70
7 | Cc1nsc(Nc2ccc(C#N)cn2)c1C(=O)Nc1ccc(OC2CCN(C(=O)OC(C)(C)C)CC2)nc1 [Example 27, tert-Butyl 4-({5-[({5-[(5-cyanopyridin-2-yl)amino]-3-methyl-1,2-thiazol-4-yl}-carbonyl)amino]pyridin-2-yl}oxy)piperidine-1-carboxylate] | ≤ 4.70
8 | Cc1nsc(Nc2cnc3ccccc3n2)c1C(=O)Nc1ccc(N2CCN(C(=O)OC(C)(C)C)CC2)nc1 [Example 248, tert-butyl 4-[5-({[3-methyl-5-(quinoxalin-2-ylamino)-1,2-thiazol-4-yl]carbonyl}amino)pyridin-2-yl]piperazine-1-carboxylate] | < 4.70
9 | Cc1nsc(Nc2cnc3ccccc3n2)c1C(=O)Nc1cccc(C(=O)NC2CC2)c1 [Example 249, N-[3-(cyclopropylcarbamoyl)phenyl]-3-methyl-5-(quinoxalin-2-ylamino)-1,2-thiazole-4-carboxamide] | < 4.70
10 | Cc1nsc(Nc2ccc(C#N)cn2)c1C(=O)Nc1cccc(C(=O)NC2CC2)c1 [Example 250, 5-[(5-cyanopyridin-2-yl)amino]-N-[3-(cyclopropylcarbamoyl)phenyl]-3-methyl-1,2-thiazole-4-carboxamide] | < 4.70
11 | CCNC(=O)c1cccc(NC(=O)c2c(C)nsc2Nc2cnc3ccccc3n2)c1 [Example 251, N-[3-(ethylcarbamoyl)phenyl]-3-methyl-5-(quinoxalin-2-ylamino)-1,2-thiazole-4-carboxamide] | < 4.70
12 | CCNC(=O)c1cccc(NC(=O)c2c(C)nsc2Nc2ccc(C#N)cn2)c1 [Example 252, 5-[(5-cyanopyridin-2-yl)amino]-N-[3-(ethylcarbamoyl)phenyl]-3-methyl-1,2-thiazole-4-carboxamide] | < 4.70
13 | Cc1nsc(Nc2cnc3ccccc3n2)c1C(=O)Nc1cccc(C(=O)NC(C)C)c1 [Example 253, N-[3-(isopropylcarbamoyl)phenyl]-3-methyl-5-(quinoxalin-2-ylamino)-1,2-thiazole-4-carboxamide] | < 4.70
14 | Cc1nsc(Nc2cc(C#N)ccn2)c1C(=O)Nc1cccc(C(=O)NC(C)C)c1 [Example 254, 5-[(4-cyanopyridin-2-yl)amino]-N-[3-(isopropylcarbamoyl)phenyl]-3-methyl-1,2-thiazole-4-carboxamide] | < 4.70
15 | Cc1nsc(Nc2ccc(C#N)cn2)c1C(=O)Nc1cccc(C(=O)NC(C)C)c1 [Example 255, 5-[(5-cyanopyridin-2-yl)amino]-N-[3-(isopropylcarbamoyl)phenyl]-3-methyl-1,2-thiazole-4-carboxamide] | < 4.70
16 | COC(=O)CCCc1ccc(NC(=O)c2c(C)nsc2Nc2cc(C#N)ccn2)cc1 [Example 256, methyl 4-{4-[({5-[(4-cyanopyridin-2-yl)amino]-3-methyl-1,2-thiazol-4-yl}carbonyl)amino]phenyl}butanoate] | < 4.70

Row | Structure (SMILES) | pIC50
17 | COC(=O)CCc1cccc(NC(=O)c2c(C)nsc2Nc2cnc3ccccc3n2)c1 [Example 257, methyl 3-[3-({[3-methyl-5-(quinoxalin-2-ylamino)-1,2-thiazol-4-yl]carbonyl}amino)phenyl]propanoate] | < 4.70
18 | Cc1nsc(Nc2cnc3ccccc3n2)c1C(=O)Nc1cccc(NS(=O)(=O)C2CCN(C(=O)OC(C)(C)C)CC2)c1 [Example 258, tert-butyl 4-{[3-({[3-methyl-5-(quinoxalin-2-ylamino)-1,2-thiazol-4-yl]carbonyl}amino)phenyl]sulfamoyl} piperidine-1-carboxylate] | < 4.70
19 | Cc1nsc(Nc2cnc(C(F)(F)F)cn2)c1C(=O)Nc1ccc(C(=O)NC2CCN(CC(F)F)CC2)cc1 [Example 259, N-(4-{[1-(2,2-difluoroethyl)piperidin-4-yl]carbamoyl}phenyl)-3-methyl-5-{[5-(trifluoromethyl)pyrazin-2-yl]amino}-1,2-thiazole-4-carboxamide] | < 4.70
20 | Cc1nsc(Nc2cnc(C(F)(F)F)cn2)c1C(=O)Nc1ccc(C(=O)N2CCN(CC(F)(F)F)CC2)cc1 [Example 260, 3-methyl-N-(4-{[4-(2,2,2-trifluoroethyl)piperazin-1-yl]carbonyl}phenyl)-5-{[5-(trifluoromethyl)pyrazin-2-yl]amino}-1,2-thiazole-4-carboxamide] | < 4.70
21 | CCN1CCN(C(=O)c2ccc(NC(=O)c3c(C)nsc3Nc3cnc(C(F)(F)F)cn3)cc2)CC1 [Example 261, N-{4-[(4-ethylpiperazin-1-yl)carbonyl]phenyl}-3-methyl-5-{[5-(trifluoromethyl)pyrazin-2-yl]amino}-1,2-thiazole-4-carboxamide] | < 4.70
22 | Cc1nsc(Nc2cnc(C(F)(F)F)cn2)c1C(=O)Nc1ccc(C(=O)N2CCN(C)CC2)cc1 [Example 262, 3-methyl-N-{4-[(4-methylpiperazin-1 yl)carbonyl]phenyl}-5-{[5-(trifluoromethyl)pyrazin-2-yl]amino}-1,2-thiazole-4-carboxamide] | < 4.70
23 | Cc1nsc(Nc2cc(C#N)ccn2)c1C(=O)Nc1ccc(OC2CCN(CC(F)F)CC2)nc1 [Example 263, 5-[(4-cyanopyridin-2-yl)amino]-N-(6-{[1-(2,2-difluoroethyl)piperidin-4-yl]oxy}pyridin-3-yl)-3-methyl-1,2-thiazole-4-carboxamide] | < 4.70
24 | Cc1nsc(Nc2cnc(C(F)(F)F)cn2)c1C(=O)Nc1ccc(F)c(OC2CCN(CC(F)(F)F)CC2)c1 [Example 264, N-(4-fluoro-3-{[1-(2,2,2-trifluoroethyl)piperidin-4-yl]oxy}phenyl)-3-methyl-5-{[5-(trifluoromethyl)pyrazin-2-yl]amino}-1,2-thiazole-4-carboxamide] | < 4.70
25 | Cc1nsc(Nc2cnc(C(F)(F)F)cn2)c1C(=O)Nc1ccc(F)c(OC2CCN(CC(F)F)CC2)c1 [Example 265, N-(3-{[1-(2,2-difluoroethyl)piperidin-4-yl]oxy}-4-fluorophenyl)-3-methyl-5-{[5-(trifluoromethyl)pyrazin-2-yl]amino}-1,2-thiazole-4-carboxamide] | < 4.70
26 | Cc1nsc(Nc2cnc(C(F)(F)F)cn2)c1C(=O)Nc1ccc(F)c(OC2CCN(CCF)CC2)c1 [Example 266, N-(4-fluoro-3-{[1-(2-fluoroethyl)piperidin-4-yl]oxy}phenyl)-3-methyl-5-{[5-(trifluoromethyl)pyrazin-2-yl]amino}-1,2-thiazole-4-carboxamide] | < 4.70
27 | Cc1nsc(Nc2cncc(C(F)(F)F)n2)c1C(=O)Nc1ccc(F)c(OC2CCN(CC(F)(F)F)CC2)c1 [Example 267, N-(4-fluoro-3-{[1-(2,2,2-trifluoroethyl)piperidin-4-yl]oxy}phenyl)-3-methyl-5-{[6-(trifluoromethyl)pyrazin-2-yl]amino}-1,2-thiazole-4-carboxamide] | < 4.70
28 | Cc1nsc(Nc2cncc(C(F)(F)F)n2)c1C(=O)Nc1ccc(F)c(OC2CCN(CC(F)F)CC2)c1 [Example 268, N-(3-{[1-(2,2-difluoroethyl)piperidin-4-yl]oxy}-4-fluorophenyl)-3-methyl-5-{[6-(trifluoromethyl)pyrazin-2-yl]amino}-1,2-thiazole-4-carboxamide] | < 4.70
29 | Cc1nsc(Nc2cncc(C(F)(F)F)n2)c1C(=O)Nc1ccc(F)c(OC2CCN(CCF)CC2)c1 [Example 269, N-(4-fluoro-3-{[1-(2-fluoroethyl)piperidin-4-yl]oxy}phenyl)-3-methyl-5-{[6-(trifluoromethyl)pyrazin-2-yl]amino}-1,2-thiazole-4-carboxamide] | < 4.70
30 | Cc1nsc(Nc2cnc(C(F)(F)F)cn2)c1C(=O)Nc1ccc(C(=O)NC2CN(CC(F)(F)F)C2)cc1 [Example 270, 3-methyl-N-(4-{[1-(2,2,2-trifluoroethyl)azetidin-3-yl]carbamoyl}phenyl)-5-{[5-(trifluoromethyl)pyrazin-2-yl]amino}-1,2-thiazole-4-carboxamide] | < 4.70
31 | Cc1nsc(Nc2cnc(C(F)(F)F)cn2)c1C(=O)Nc1ccc(C(=O)NC2CN(CC(F)F)C2)cc1 [Example 271, N-(4-{[1-(2,2-difluoroethyl)azetidin-3-yl]carbamoyl}phenyl)-3-methyl-5-{[5-(trifluoromethyl)pyrazin-2-yl]amino}-1,2-thiazole-4-carboxamide] | < 4.70

Reference: US20170334899A1, “AMINO-SUBSTITUTED ISOTHIAZOLES” (Bayer Pharma Aktiengesellschaft, priority 2014, published 2017)
